Biological target: Lysine-specific histone demethylase 1A (Homo sapiens, UniProt O60341)
Assay: In Vitro Enzyme Inhibition Assay - LSD-1

For `CN(C)C1CCN(c2nc(-c3ccc(C#N)c(F)c3)c(C3=CC4C=NN(C)C4C=C3)c(=O)n2C)CC1` (stereo unspecified) [US10548896, Example 72], the IC50 was < 100 nM.
